Target: T1, human HSL (Homo sapiens, UniProt Q05469)
T1 construct: overlapping PCR to generate a full length human HSL ORF with a 3′-His6 tag; His6 (C); made in house; host or cells: High 5 insect cells (baculovirus, pFast-BAC)
T1 sequence (Q05469 1-1076): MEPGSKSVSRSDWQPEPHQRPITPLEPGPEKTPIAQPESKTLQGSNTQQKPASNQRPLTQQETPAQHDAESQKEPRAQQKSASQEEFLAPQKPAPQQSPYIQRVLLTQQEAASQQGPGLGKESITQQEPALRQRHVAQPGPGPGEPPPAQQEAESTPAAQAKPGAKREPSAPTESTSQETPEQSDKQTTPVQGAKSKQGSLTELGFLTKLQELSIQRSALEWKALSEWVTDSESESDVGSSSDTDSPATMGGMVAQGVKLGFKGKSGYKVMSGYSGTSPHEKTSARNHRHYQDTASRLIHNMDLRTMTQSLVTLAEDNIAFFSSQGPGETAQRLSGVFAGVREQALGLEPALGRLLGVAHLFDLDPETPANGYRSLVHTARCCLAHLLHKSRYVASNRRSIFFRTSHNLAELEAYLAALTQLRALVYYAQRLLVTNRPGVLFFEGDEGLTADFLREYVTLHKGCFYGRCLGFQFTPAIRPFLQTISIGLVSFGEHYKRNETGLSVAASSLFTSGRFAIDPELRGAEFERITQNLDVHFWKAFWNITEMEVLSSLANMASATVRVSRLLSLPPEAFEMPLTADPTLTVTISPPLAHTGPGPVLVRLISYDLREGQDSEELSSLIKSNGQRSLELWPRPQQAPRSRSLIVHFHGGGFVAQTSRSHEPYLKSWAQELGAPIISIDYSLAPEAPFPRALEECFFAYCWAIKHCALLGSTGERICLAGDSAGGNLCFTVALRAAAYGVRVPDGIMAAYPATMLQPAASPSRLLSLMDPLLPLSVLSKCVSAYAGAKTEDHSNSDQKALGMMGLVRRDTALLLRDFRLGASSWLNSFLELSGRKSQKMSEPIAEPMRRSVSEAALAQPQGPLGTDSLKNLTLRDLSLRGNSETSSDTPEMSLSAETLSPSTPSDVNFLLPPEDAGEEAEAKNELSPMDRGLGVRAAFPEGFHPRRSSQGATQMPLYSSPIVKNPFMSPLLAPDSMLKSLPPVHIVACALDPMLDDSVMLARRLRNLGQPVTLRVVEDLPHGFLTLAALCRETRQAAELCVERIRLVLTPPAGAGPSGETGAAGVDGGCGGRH
Assay: Human Hormone-Sensitive Lipase (HSL) enzyme inhibition assay (colorimetric, DMPT substrate)
Assay type: biochemical
Settings: human full length HSL-His6, 2,3-dimercapto-1-propanol tributyrate substrate, 37° C. 20 minutes, absorbance at 405 nm; read-out: HSL hum IC50
Experimental: 1) Cloning: cDNA was prepared from commercial human brain polyA+ RNA and used as a template in overlapping PCR to generate a full length human HSL ORF with a 3′-His6 tag. This full length insert was cloned into the pFast-BAC vector and the DNA-sequence of several single clones was verified. DNA from a correct full length clone with the 3′His6 tag was used to transform the E. coli strain DH10BAC. Resulting bacmid DNA was used to generate a titered baculovirus stock for protein generation.
Cells were thawed. […] was done at 3×30 sec., Lubrol PX was added to 0.2% final concentration followed by stirring for 15 min. at 4° C. and centrifugation at 25 k×g, 60 min., 4° C. […] Supernatant was removed, the resin washed in the centrifuge vessel using 5 volumes of Base Buffer containing 0.2% Lubrol PX. Centrifugation was done again, then the supernatant discarded. The resin was poured onto a 0.8 μm membrane in a disposable filter unit (Nalge 450-0080), and washed with 5 volumes of Base Buffer containing 0.2% Lubrol PX. It was then washed with 30 volumes of Base Buffer containing 60 mM imidazole pH 7.5 at 4° C. The protein was eluated with 5 volumes of 25 mM Tris-Cl, 300 mM NaCl, 200 mM imidazole, 10 mM 2-mercaptoethanol, pH 7.5 at 4° C. by tumbling resin with buffer end-over-end, 30 min., 4° C. The resin was captured on a 0.2 μm membrane disposable filter unit (Millipore SCGP U02 RE) and the eluate collected in the reservoir. The eluate was concentrated using a 30 k MWCO centrifugal filter device (Sartorius Vivascience Vivacell 100, VC1022), to 20 ml. It was then dialyzed overnight at 4° C., two times against 2 L of 10% glycerol, 25 mM Tris-Cl, 300 mM NaCl, 0.2 mM EDTA, 0.2 mM DTT, pH 7.5 at 4° C. The protein was filtered using a 0.22 μm disposable filter unit (Millipore SCGP00525). The protein concentration was calculated from absorbance at 280 nm, using 280=0.67 cm-1 mg-1. […] The protein was stored at −80° C.
Human Hormone-Sensitive Lipase (HSL) Enzyme Inhibition Assay:
HSL enzyme activity was measured by a colorimetric assay using 2,3-dimercapto-1-propanol tributyrate (Aldrich, St. Louis, Mo.) as a substrate. Typically, 1.5 mM 2,3-dimercapto-1-propanol tributyrate (DMPT) in 100 mM MOPS, pH 7.2, 0.2 mg/ml fatty acid-free BSA was prepared by sonication at 4° C. to homogenous suspension. Test compounds (2 mM stock in DMSO) were diluted 3 fold in series in DMSO. Compound solutions were diluted 24 fold in 1.5 mM DMPT containing solution and 18 ul per well was added to 384-well microplates (Corning Costar). Twelve microliters per well of human HSL (15 ug/ml) was added and the reaction mixture was incubated at 37° C. for 20 minutes. Six microliters of 12 mM dithio-bis-(2-nitrobenzoic acid) (DTNB) in DMSO plus 1.2% SDS and 0.6% Triton X-100 were added and the mixture was incubated at room temperature for 15 minutes. Product production was monitored by reading absorbance at 405 nm on an Envision Reader (PerkinElmer Life and Analytical Sciences, Shelton, Conn.).

Row | IC50 | Structure (SMILES)
1 | 710 nM | COCCCNC(=O)CN1CCC2(CC1)CCN(c1ccc(C3CC3)cc1)C2=O [Example 17, 2-[2-(4-Cyclopropyl-phenyl)-1-oxo-2,8-diaza-spiro[4.5]dec-8-yl]-N-(3-methoxy-propyl)-acetamide]
2 | 460 nM | CCCCNC(=O)CCN1CCC2(CC1)CCN(c1ccc(C3CC3)cc1)C2=O [Example 18, N-Butyl-3-[2-(4-cyclopropyl-phenyl)-1-oxo-2,8-diaza-spiro[4.5]dec-8-yl]-propionamide]
3 | 30 nM | O=C(CCN1CCC2(CC1)CCN(c1ccc(C3CC3)cc1)C2=O)NCc1ccc(C(F)(F)F)cc1 [Example 19, 3-[2-(4-Cyclopropyl-phenyl)-1-oxo-2,8-diaza-spiro[4.5]dec-8-yl]-N-(4-trifluoromethyl-benzyl)-propionamide]
4 | 60 nM | O=C(CCN1CCC2(CC1)CCN(c1ccc(C3CC3)cc1)C2=O)Nc1ccc(F)cc1 [Example 20, 3-[2-(4-Cyclopropyl-phenyl)-1-oxo-2,8-diaza-spiro[4.5]dec-8-yl]-N-(4-fluoro-phenyl)-propionamide]
5 | 90 nM | CN(Cc1ccccc1)C(=O)CCN1CCC2(CC1)CCN(c1ccc(C3CC3)cc1)C2=O [Example 21, N-Benzyl-3-[2-(4-cyclopropyl-phenyl)-1-oxo-2,8-diaza-spiro[4.5]dec-8-yl]-N-methyl-propionamide]
6 | 320 nM | CN(C(=O)CCN1CCC2(CC1)CCN(c1ccc(C3CC3)cc1)C2=O)C1CCCCC1 [Example 22, N-Cyclohexyl-3-[2-(4-cyclopropyl-phenyl)-1-oxo-2,8-diaza-spiro[4.5]dec-8-yl]-N-methyl-propionamide]
7 | 70 nM | O=C1N(c2ccc(C3CC3)cc2)CCC12CCN(CC(O)c1ccccc1)CC2 (centres unmarked) [Example 23, 2-(4-Cyclopropyl-phenyl)-8-(2-hydroxy-2-phenyl-ethyl)-2,8-diaza-spiro[4.5]decan-1-one]
8 | 80 nM | O=C1N(c2ccc(C3CC3)cc2)CCC12CCN(CC(O)c1ccc(Cl)cc1)CC2 (centres unmarked) [Example 24, 8-[2-(4-Chloro-phenyl)-2-hydroxy-ethyl]-2-(4-cyclopropyl-phenyl)-2,8-diaza-spiro[4.5]decan-1-one]
9 | 40 nM | CC(C(=O)Nc1ccc(F)cc1)N1CCC2(CCN(c3ccc(C4CC4)cc3)C2=O)CC1 (centres unmarked) [Example 25, 2-[2-(4-Cyclopropyl-phenyl)-1-oxo-2,8-diaza-spiro[4.5]dec-8-yl]-N-(4-fluoro-phenyl)-propionamide]
10 | 50 nM | CCC(C(=O)Nc1ccc(F)cc1)N1CCC2(CCN(c3ccc(C4CC4)cc3)C2=O)CC1 (centres unmarked) [Example 26, 2-[2-(4-Cyclopropyl-phenyl)-1-oxo-2,8-diaza-spiro[4.5]dec-8-yl]-N-(4-fluoro-phenyl)-butyramide]
11 | 30 nM | CCCCNC(=O)C(C)N1CCC2(CCN(c3ccc(C4CC4)cc3)C2=O)CC1 (centres unmarked) [Example 27, N-Butyl-2-[2-(4-cyclopropyl-phenyl)-1-oxo-2,8-diaza-spiro[4.5]dec-8-yl]-propionamide]
12 | 30 nM | CCCCNC(=O)C(CC)N1CCC2(CCN(c3ccc(C4CC4)cc3)C2=O)CC1 (centres unmarked) [Example 28, N-Butyl-2-[2-(4-cyclopropyl-phenyl)-1-oxo-2,8-diaza-spiro[4.5]dec-8-yl]-butyramide]
13 | 40 nM | CCCCNC(=O)C(c1ccccc1)N1CCC2(CCN(c3ccc(C4CC4)cc3)C2=O)CC1 (centres unmarked) [Example 29, N-Butyl-2-[2-(4-cyclopropyl-phenyl)-1-oxo-2,8-diaza-spiro[4.5]dec-8-yl]-2-phenyl-acetamide]
14 | 20 nM | CCCCNC(=O)C(CCCC)N1CCC2(CCN(c3ccc(C4CC4)cc3)C2=O)CC1 (centres unmarked) [Example 30, 2-[2-(4-Cyclopropyl-phenyl)-1-oxo-2,8-diaza-spiro[4.5]dec-8-yl]-hexanoic acid butylamide]
15 | 20 nM | CCCCNC(=O)C(C(C)C)N1CCC2(CCN(c3ccc(C4CC4)cc3)C2=O)CC1 (centres unmarked) [Example 31, N-Butyl-2-[2-(4-cyclopropyl-phenyl)-1-oxo-2,8-diaza-spiro[4.5]dec-8-yl]-3-methyl-butyramide]
16 | 90 nM | O=C1N(c2ccc(C3CC3)cc2)CCC12CCN(C[C@@H](O)c1ccccc1)CC2 [Example 32, 2-(4-Cyclopropyl-phenyl)-8-((S)-2-hydroxy-2-phenyl-ethyl)-2,8-diaza-spiro[4.5]decan-1-one]
17 | 40 nM | O=C1N(c2ccc(C3CC3)cc2)CCC12CCN(C[C@H](O)c1ccccc1)CC2 [Example 33, 2-(4-Cyclopropyl-phenyl)-8-((R)-2-hydroxy-2-phenyl-ethyl)-2,8-diaza-spiro[4.5]decan-1-one]
18 | 100 nM | CC(O)(CN1CCC2(CC1)CCN(c1ccc(C3CC3)cc1)C2=O)c1ccccc1 (centres unmarked) [Example 34, 2-(4-Cyclopropyl-phenyl)-8-(2-hydroxy-2-phenyl-propyl)-2,8-diaza-spiro[4.5]decan-1-one]
19 | 20 nM | O=C1N(c2ccc(C3CC3)cc2)CCC12CCN(C[C@H](O)c1ccc(F)cc1)CC2 [Example 35, 2-(4-Cyclopropyl-phenyl)-8-[(R)-2-(4-fluoro-phenyl)-2-hydroxy-ethyl]-2,8-diaza-spiro[4.5]decan-1-one]
20 | 30 nM | O=C1N(c2ccc(C3CC3)cc2)CCC12CCN(C[C@H](O)c1cccc(Cl)c1)CC2 [Example 36, 8-[(R)-2-(3-Chloro-phenyl)-2-hydroxy-ethyl]-2-(4-cyclopropyl-phenyl)-2,8-diaza-spiro[4.5]decan-1-one]
21 | 30 nM | O=C1N(c2ccc(C3CC3)cc2)CCC12CCN(CC(O)c1ccc(Cl)c(Cl)c1)CC2 (centres unmarked) [Example 37, 2-(4-Cyclopropyl-phenyl)-8-[2-(3,4-dichloro-phenyl)-2-hydroxy-ethyl]-2,8-diaza-spiro[4.5]decan-1-one]
22 | 30 nM | O=C1N(c2ccc(C3CC3)cc2)CCC12CCN(CC(O)c1ccc(Cl)cc1Cl)CC2 (centres unmarked) [Example 38, 2-(4-Cyclopropyl-phenyl)-8-[2-(2,4-dichloro-phenyl)-2-hydroxy-ethyl]-2,8-diaza-spiro[4.5]decan-1-one]
23 | 165 nM | COc1ccc(C(C(O)C(N)=O)N2CCC3(CCN(c4ccc(C5CC5)cc4)C3=O)CC2)cc1 (centres unmarked) [Example 40, 3-[2-(4-Cyclopropyl-phenyl)-1-oxo-2,8-diaza-spiro[4.5]dec-8-yl]-2-hydroxy-3-(4-methoxy-phenyl)-propionamide]

Source: patent publication US8389539B2, “Azacyclic derivatives” (Hoffman-La Roche Inc., priority 2009, dated 2013)
